Measured values taken from ChEMBL document CHEMBL1148179, “Structural revisions of some non-adjacent bis-tetrahydrofuran annonaceous acetogenins” (1993).
Values after ≈ are worked out from the molar mass of the structure shown.

How the values were obtained:
Format in all cases: functional
MCF7 = assay: Cytotoxicity against human MCF7 cells; conditions: read-out: ED50 (the source's name)
A549 = assay: Cytotoxicity against human A549 cells
HT-29 = assay: Cytotoxicity against human HT-29 cells; conditions: read-out: ED50 (the source's name)

**Q.** Which EC50 (MCF7) does the source give for `CCCCCC[C@H](O)CCC[C@H](O)[C@H]1CC[C@H]([C@H]2CC(O)[C@H]([C@H](O)CCCCCCCCCCCCC3=C[C@H](C)OC3=O)O2)O1` (stereo partly specified) [ANNONIN XVI] here?
**A.** 1.46 µg/mL (≈ 2.29 µM)

**Q.** And the ED50 (A549)?
**A.** <1 ×10⁻⁸ ug/ml

**Q.** And the EC50 (HT-29)?
**A.** 1.42 µg/mL (≈ 2.22 µM)

**Q.** Which EC50 (MCF7) does the source give for `COc1cccc2c1C(=O)c1c(O)c3c(c(O)c1C2=O)C[C@@](O)(C(=O)CO)C[C@@H]3O[C@H]1C[C@H](N)[C@H](O)[C@H](C)O1` [DOXORUBICIN] here?
**A.** 0.0913 µg/mL (≈ 0.168 µM)

**Q.** And the ED50 (A549)?
**A.** 2.08 ×10⁻⁴ ug/ml

**Q.** And the EC50 (HT-29)?
**A.** 0.0013 µg/mL (≈ 0.00239 µM)
